From patent publication US11691962B2 (eXIthera Pharmaceuticals, Inc., priority 2018, dated 2023)

How the values were obtained:
[1] = Determination of bioavailability in a dog; assay type: in vivo; settings: plasma, male beagle dogs, IV bolus 1 mg/kg vs oral gavage 5 mg/kg, AUC comparison
Procedure: The following protocol was used to estimate the bioavailability of test compounds in a dog. Test compounds were formulated in vehicles compatible with intravenous and oral dosing. Test compounds were administered to male beagle dogs via an intravenous bolus at 1 mg/kg (1 mg/mL at a dose volume of 1 mL/kg) or via oral gavage at 5 mg/kg (1 mg/mL at a dose volume of 5 mL/kg). Blood samples were collected via the contralateral (to intravenous bolus) jugular vein or via other accessible vein, at various timepoints following administration out to 24 hours post dose. Plasma samples (EDTA) were obtained by centrifugation (2200×g for 10 minutes at 5° C.) and stored frozen ([…]) until analyzed for parent compound via LC/MS/MS. Pharmacokinetic parameters were estimated from the plasma concentration time data by standard non-compartmental methods utilizing standard analysis software. By comparing the area under the curve (AUC) for IV and PO administration estimates of oral bioavailability were determined.

[2] = tested on: human plasma protein; assay: Plasma protein binding by equilibrium dialysis; assay type: in vitro ADME; settings: pooled human plasma, 10 μM, 4 hours at 37° C.
Procedure, shortened: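 Pooled mixed-gender human plasma spiked with compound at 10 μM was dialysed against PBS pH 7.4 for 4 h at 37°C. Both compartments were quantified by HPLC-MS/MS, and % bound was calculated from plasma vs buffer peak areas.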

[3] = tested on: Caco-2 cells; assay: Caco-2 cell permeability assay; assay type: in vitro ADME, human; settings: Papp, 10 μM, 37° C.
Procedure, shortened: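 Caco-2 monolayers (days 21-25 post-seeding) received 10 μM compound in HBSS-MES pH 6.5 or HBSS-HEPES pH 7.4 (1% DMSO) at 37 °C, for 60 min A-B or 40 min B-A. Donor and receiver samples were quantified by HPLC-MS/MS (SRM), and Papp and recovery were calculated.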

[4] = tested on: beagle dog hepatocytes; assay: Metabolic stability in dog hepatocytes; assay type: in vitro ADME; settings: 2 μM compound
Procedure, shortened: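 Pooled cryopreserved beagle hepatocytes at 500,000 cells/mL in Krebs-Henseleit buffer with 2 μM compound, 37 °C, 5% CO2, sampled out to 180 min. Acetonitrile-quenched samples analysed by LC-MS/MS; percent remaining from peak area versus time zero.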

Row | Compound | bioavailability [1] [%] | also measured
1 | (2S,3R)-3-((2-amino-6-methylpyridin-4-yl)methyl)-N2-(1-methyl-1H-imidazol-2-yl)-N1-((R)-1-(3-fluorophenyl)propyl)-N2-methyl-4-oxoazetidine-1,2-dicarboxamide [Compound 1-120] | – | PPB (%) [2]: Z (“Z” indicates 50-90%); Caco-2 Permeability (A-B) ([3]; apical to basolateral, 60 min): P (“P” indicates < 10 × 10^−6 cm/s); Caco-2 Permeability (B-A) ([3]; basolateral to apical, 40 min): Q (“Q” indicates 11-30 × 10^−6 cm/s); Dog Hepatocyte Stability (t1/2) [4]: N (“N” indicates > 240 min)
2 | CC[C@@H](NC(=O)N1C(=O)[C@H](Cc2ccnc(N)c2)[C@H]1C(=O)N(C)c1cccs1)c1ccccc1 [Compound 1-10, (2S,3R)-3-((2-aminopyridin-4-yl)methyl)-N2-(thiophen-2-yl)-N1-((R)-1-phenylpropyl)-N2-methyl-4-oxoazetidine-1,2-dicarboxamide] | 11 to 30 | –
3 | CC[C@@H](NC(=O)N1C(=O)[C@H](Cc2ccnc(N)c2)[C@H]1C(=O)N(C)c1ccn(C)n1)c1ccccc1 [Compound 1-3, (2S,3R)-3-((2-aminopyridin-4-yl)methyl)-N2-(1-methyl-1H-pyrazol-3-yl)-N1-((R)-1-phenylpropyl)-N2-methyl-4-oxoazetidine-1,2-dicarboxamide] | > 30 | –
4 | CC[C@@H](NC(=O)N1C(=O)[C@H](Cc2ccnc(N)c2)[C@H]1C(=O)N(C)c1ccnn1C)c1cccc(Cl)c1 [Compound 1-4, (2S,3R)-3-((2-aminopyridin-4-yl)methyl)-N2-(1-methyl-1H-pyrazol-5-yl)-N1-((R)-1-(3-chlorophenyl)propyl)-N2-methyl-4-oxoazetidine-1,2-dicarboxamide] | > 30 | –
5 | CC[C@@H](NC(=O)N1C(=O)[C@H](Cc2cc(C)nc(NC)c2)[C@H]1C(=O)N(C)c1nccn1C)c1ccccc1 [Compound 1-45, (2S,3R)-3-((2-methylamino-6-methylpyridin-4-yl)methyl)-N2-(1-methyl-1H-imidazol-2-yl)-N1-((R)-1-phenylpropyl)-N2-methyl-4-oxoazetidine-1,2-dicarboxamide] | 11 to 30 | –
6 | CC[C@@H](NC(=O)N1C(=O)[C@H](Cc2ccnc(N)c2)[C@H]1C(=O)N(C)c1nccn1C)c1ccccc1 [Compound 1-13, (2S,3R)-3-((2-aminopyridin-4-yl)methyl)-N2-(1-methyl-1H-imidazol-2-yl)-N1-((R)-1-phenylpropyl)-N2-methyl-4-oxoazetidine-1,2-dicarboxamide] | > 30 | –

Further lines, with some results ahead:

Row | bioavailability [1] [%] | Compound | also measured
7 | > 30 | CC[C@@H](NC(=O)N1C(=O)[C@H](Cc2cc(C)nc(N)c2)[C@H]1C(=O)N(C)c1nccn1C)c1ccccc1 [Compound 1-51, (2S,3R)-3-((2-amino-6-methylpyridin-4-yl)methyl)-N2-(1-methyl-1H-imidazol-2-yl)-N1-((R)-1-phenylpropyl)-N2-methyl-4-oxoazetidine-1,2-dicarboxamide] | –
8 | > 30 | CC[C@@H](NC(=O)N1C(=O)[C@H](Cc2ccnc(N)c2)[C@H]1C(=O)N(C)c1ccnn1C)c1ccccc1 [Compound 1-92, (2S,3R)-3-((2-aminopyridin-4-yl)methyl)-N2-(1-methyl 1H-pyrazol-5-yl)-N1-((R)-1-phenylpropyl)-N2-methyl-4-oxoazetidine-1,2-dicarboxamide] | –
9 | > 30 | CC[C@@H](NC(=O)N1C(=O)[C@H](Cc2cc(C)nc(N)c2)[C@H]1C(=O)N(C)c1ccn(C)n1)c1cccc(Cl)c1 [Compound 1-89, (2S,3R)-3-((2-amino-6-methylpyridin-4-yl)methyl)-N2-(1-methyl-1H-pyrazol-3-yl)-N1-((R)-1-(3-chlorophenyl)propyl)-N2-methyl-4-oxoazetidine-1,2-dicarboxamide] | –
10 | > 30 | CC[C@@H](NC(=O)N1C(=O)[C@H](Cc2ccnc(N)c2)[C@H]1C(=O)N(C)c1ccn(C)n1)c1cccc(Cl)c1 [Compound 1-91, (2S,3R)-3-((2-aminopyridin-4-yl)methyl)-N2-(1-methyl-1H-pyrazol-3-yl)-N1-((R)-1-(3-chlorophenyl)propyl)-N2-methyl-4-oxoazetidine-1,2-dicarboxamide] | –
11 | < 10 | CC[C@@H](NC(=O)N1C(=O)[C@H](Cc2ccnc(N)c2)[C@H]1C(=O)N(C)c1nccn1C)c1ccc(C)nc1 [Compound 1-81, (2S,3R)-3-((2-aminopyridin-4-yl)methyl)-N2-(1-methyl-1H-imidazol-2-yl)-N1-((R)-1-(6-methylpyridin-3-yl)propyl)-N2-methyl-4-oxoazetidine-1,2-dicarboxamide] | –
